Consider 2 molecules from US20110300198A1, “HYDROCOLLOID - ESSENTIAL OIL PATCHES” (priority 2010, published 2011).

A short description of series [1]: Preliminary in-vivo experiment, constituents in blood (GC, WAX column). On the set-up: species or system rat.
A short description of series [2]: Preliminary in-vivo experiment, constituents in urine (GC). The note with it: male, Sprague-Dawley, rat, 7.5 % lavender essential oil in almond oil, collected urine sample, 84 h after the simulated massage. The source says:
Male Sprague-Dawley rats, weighing 300-350 g, were used in the studies (Harlan, Rehovot, Israel). The experimental protocols were approved by the Hebrew University of Jerusalem Committee on the Use and Care of Animals. Rats were maintained under specified-pathogen-free (SPF) conditions and were allowed to acclimate to the environment for at least 7 days before their use in the study. Rats were anesthetized and the fur on their stomach shaved prior to exposure. […] Each rat was housed in an individual cage in order to prevent oral contamination of the essential oil by one rat eating another's patch. Blood samples (0.5 ml) were taken at 0, 12, 24, 36, 48 and 60 h from a nick at the tip of tail to determine contents of essential-oil components. Rats were restrained and the tail was gently massaged to facilitate blood collection. […] Urine samples were similarly analyzed by gas chromatography (GC).
Similar values of camphor (FIG. 17) were detected following application of a lavender oil patch on the back and abdomen. […] In the blood of rats with an abdomen-adhered patch, more linalyl acetate was detected than in the blood of rats with a back patch. […] In a collected urine sample, 0.01265 mg L^−1 linalool and 0.00903 mg L^−1 linalyl acetate were detected. […] In addition, no traces of camphor were detected in the urine (note that the urine analysis was performed 84 h after the simulated massage).

Series [3] in a line: In-vivo experiment with HP-5 column, constituents in blood. On the set-up: species or system rat. The source says: Male Sprague-Dawley rats, weighing 300-350 g, were used in the studies (Harlan, Rehovot, Israel). The experimental protocols were approved by the Hebrew University of Jerusalem Committee on the Use and Care of Animals. Rats were maintained under specified-pathogen-free (SPF) conditions and were allowed to acclimate to the environment for at least 7 days before their use in the study. Rats were anesthetized and the fur on their stomach shaved prior to exposure. Gum karaya patches with and without lavender essential oil were applied to the rat's stomach skin. Each rat was housed in an individual cage in order to prevent oral contamination of the essential oil by one rat eating another's patch. Blood samples (0.5 ml) were taken at 0, 12, 24, 36, 48 and 60 h from a nick at the tip of tail to determine contents of essential-oil components. Rats were restrained and the tail was gently massaged to facilitate blood collection. Blood samples were collected in vials containing 0.1 ml heparin (100 kU, Sigma). A 10-μl volume of aqueous linalyl isovalerate stock solution was added as an internal standard to each blood sample and samples were stored at −80° C. After 60 h, patches were removed and the application site was wiped with 70% alcohol. Animals were sacrificed and the patch of stomach skin to which the essential oil patch had been applied was removed and minced into small pieces. The skin pieces were placed in 1 ml of ethanol containing linalyl isovalerate as the internal standard and sonicated for 30 min after heating to 50° C. A 10-μl aliquot was then injected straight into the gas chromatograph. A urine sample (0.5 ml) was obtained from the bladder immediately after sacrifice. Urine samples were similarly analyzed by gas chromatography (GC).
Blood (0.5 ml) or phosphate buffer (0.5 ml) was collected at t=0, 12, 24, 36, 48 and 60 h. Blood samples were placed in Eppendorf heparin-coated glass vials (Agilent) by heparin-washed syringe, which were sealed with septa and screw caps. Each vial contained 100 μl of heparin and blood samples were frozen at −80° C. for storage. Prior to analysis, the blood or phosphate buffer was thawed to room temperature, a 10-μl volume of internal standards (6.5 mg linalyl isovalerate and 6.5 mg geranyl formate in 25 ml acetonitrile) was added to the vial and then the mixture was vortexed. The vials were tightly capped using a clear cap with septum. The septa were pre-punctured immediately before analysis using a needle to facilitate the insertion of the fiber sheath. The fiber sheath was inserted through the septum, and positioned to expose the fiber in the center of the headspace. The vial was placed on a heating block to maintain temperature at a constant 50° C. and the solid-phase microextraction (SPME) assembly was clamped securely. Absorption time was 30 min. No stirring was required. After absorption, the SPME fiber sheath was immediately transferred to the GC injector for desorption for 5 min and GC analysis.
GC was performed on an Agilent 7890A gas chromatograph equipped with a split/splitless capillary injector, flame ionization detection (FID) system and GC Chem Station (Version B.03.01; Agilent Technologies 2007). Chromatography was carried out on a WAX or HP-5 column (30 m×0.32 mm×0.25 μm). The GC operating conditions were: splitless or split 1:40 injector 240° C., oven 50° C. for 1 min and then 10° C. min^−1 to 160° C., then 25° C. min^−1 to 240° C. and held for 6 min; the carrier gas was hydrogen.
In this experiment, patches containing lavender essential oil were adhered to the abdomen area. Patches without essential oil served as blanks. […] Detection under splitless conditions facilitated the detection of linalyl acetate, linalool, camphor, borneol and α-terpineol, the latter two being additional constituents detected only under these conditions. High concentrations of linalool, borneol and camphor were detected, in comparison to low levels of terpeneol and linalyl acetate. […]

Series [4] is described as follows: Extraction of lavender essential oil constituents from the skin after patch application. The conditions noted are these: male, Sprague-Dawley, rat, 7.5 % lavender oil in patch, skin under 7.5% lavender oil patch, removed after 60 h, read-out: Concentration extracted from the skin. It is filed as in vivo. The source says: Male Sprague-Dawley rats, weighing 300-350 g, were used in the studies (Harlan, Rehovot, Israel). The experimental protocols were approved by the Hebrew University of Jerusalem Committee on the Use and Care of Animals. Rats were maintained under specified-pathogen-free (SPF) conditions and were allowed to acclimate to the environment for at least 7 days before their use in the study. Rats were anesthetized and the fur on their stomach shaved prior to exposure. Gum karaya patches with and without lavender essential oil were applied to the rat's stomach skin. Each rat was housed in an individual cage in order to prevent oral contamination of the essential oil by one rat eating another's patch. Blood samples (0.5 ml) were taken at 0, 12, 24, 36, 48 and 60 h from a nick at the tip of tail to determine contents of essential-oil components. Rats were restrained and the tail was gently massaged to facilitate blood collection. Blood samples were collected in vials containing 0.1 ml heparin (100 kU, Sigma). […] Urine samples were similarly analyzed by gas chromatography (GC).
Skin to which patches with or without lavender essential oil were adhered were sampled for extraction. […] When a control patch was adhered to the skin, no constituents of lavender essential oil were detected. […]

The conditions of series [5]: cited from earlier work.
The mark [6] stands for this setting: male, Sprague-Dawley, rat, in vivo.

As to `C=CC(C)(CCC=C(C)C)OC(C)=O` (centres unmarked) [Linalyl acetate], the Detection in blood result in series [1] (after rubbing with the almond-lavender oil mixture (massage)) is “No linalyl acetate was detected”. The concentration at 84 h in series [2] (in vivo) was 9.03 ng/mL. Also, the “Concentration observed in the blood” value in series [3] (quoted for comparison with the skin extract) is 9 ng/mL. In addition, the concentration at 60 h in series [4] (in vivo, ethanol extract) turned out to be 241 ng/mL. The Solubility in water entry in series [5] is listed as “relatively low”.

On to `C=CC(C)(O)CCC=C(C)C` (centres unmarked) [Linalool], for which the “Highest concentration in blood” value in series [1] (30 min after rubbing the skin with almond-lavender essential oil mixture) turned out to be 0.32 mg/L. Besides, the “Highest concentration in blood” value in series [1] (36 h after a 7.5% lavender essential oil patch was adhered to the abdomen) turned out to be 0.48 mg/L. For the same molecule, in series [1] (after rubbing the skin with the almond-essential oil mixture), the “Time for which the constituent was evident in the blood” value is 80 min. For the same molecule, the concentration at 84 h in series [2] (topical) is 12.7 ng/mL. In series [3] (setting [6]), the “Concentration observed in the blood” value is 99 ng/mL, the “Highest value in blood” value stood at 0.099 mg/L and the concentration at 60 h was 53 ng/mL. Besides, in series [4] (skin (ethanol extract of the application site), topical), the concentration at 60 h is 62 ng/mL. Besides, the Solubility in water result in series [5] is “relatively high”.
